Assay results from PubChem BioAssay (NCI).
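The compound was tested at five concentrations on cells cultured in 96-well plates, with a 48-hour exposure period. TGI denotes the concentration required for complete inhibition of growth.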

What was measured:
Assay in all cases: NCI anticancer screen, dose series, 48 h
DLD-1 colon = tested on: DLD-1 colon
DMS 114 small cell lung = tested on: DMS 114 small cell lung
DMS 273 small cell lung = tested on: DMS 273 small cell lung
HOP-18 NSCLC = tested on: HOP-18 NSCLC
KM20L2 colon = tested on: KM20L2 colon
LXFL 529 NSCLC = tested on: LXFL 529 NSCLC
M19-MEL melanoma = tested on: M19-MEL melanoma
RXF-631 renal = tested on: RXF-631 renal
SNB-78 CNS = tested on: SNB-78 CNS
XF 498 CNS = tested on: XF 498 CNS

Compound | TGI (DLD-1 colon) [µM] | TGI (DMS 114 small cell lung) [µM] | TGI (DMS 273 small cell lung) [µM] | TGI (HOP-18 NSCLC) [µM] | TGI (KM20L2 colon) [µM] | TGI (LXFL 529 NSCLC) [µM] | TGI (M19-MEL melanoma) [µM] | TGI (RXF-631 renal) [µM] | TGI (SNB-78 CNS) [µM] | TGI (XF 498 CNS) [µM]
CCOC(=O)c1c(C(F)(F)F)oc2c1ccc1nc3nonc3nc12 | 28.6 | 55.9 | 34.4 | 26 | 36.5 | 27.2 | 38.2 | 37.6 | 23.2 | 30.8
COC1=CC(=O)c2ccccc2C1(C)C1=NC(C)(C)CO1 (stereo unspecified) | > 100 | > 100 | > 100 | > 100 | > 100 | > 100 | > 100 | > 100 | – | > 100
CCOC(=O)c1cn2c([nH]c3ccccc32)c(C#N)c1=O | > 100 | – | > 100 | > 100 | > 100 | > 100 | > 100 | > 100 | > 100 | > 100
CO[C@H](c1ccccc1)[C@H](C)N(C)c1ccc2ccccc2c1C1=NC(C)(C)CO1 | 31.8 | 33.7 | 39.2 | 31.9 | 27.4 | 49.6 | 36.6 | 39.8 | – | 33.5
CO[C@@]12CC(=O)/C(=C(O)\C=C\c3ccccc3)C(=O)[C@]1(OC)Cc1ccccc1O2 | > 100 | > 100 | – | > 100 | 49.2 | > 100 | > 100 | > 100 | > 100 | > 100
